Test results published in patent publication US10512667B2, “Compositions and methods for treating conditions related to adrenocortical activity and/or excessive steroid production” (The Regents of the University of Michigan, priority 2017, dated 2019).
Entries after “also recorded” stand apart in the source; their conditions may differ.

What was measured:
H295R cells [1] = assay: Cellular ATP level (CellTiter-Glo); conditions: for ATP level in combination with ATR-101 versus separately: compound together with ATR-101 at concentrations not cytotoxic separately; for ATP level, compound alone: serum-free medium; for ATP depletion at high concentrations of inhibitors of steroidogenesis: alone and in combination with ATR-101, 4 h;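 on all read-outs here: ATP quantified by luminescence after lysing the cells in CellTiter-Glo reagent, with compound exposure at 37 °C under 5% CO2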
H295R cells [2] = assay: Visualization of cholesterol levels by filipin III binding; type: cell-based; conditions: for cholesterol level (filipin III binding), compound alone: serum-free medium containing apoA-I, 4 h
Procedure: The cells were seeded in 96-well ibiTreat μ-Plates and allowed to adhere for 48 h prior to the start of each experiment. Cholesterol was detected in fixed cells by incubating with 100 μg/ml filipin III at 37 C for 2 h. […] Images were captured using either a 4× or a 60× objective. Cholesterol esterification was visualized by culturing the cells with 1 μM NBD-cholesterol for 2 h following incubation with the indicated compounds. […] Images were captured using either a 20× or a 60× objective.
The medium was removed and immediately replaced with 100 μl of 4% paraformaldehyde and the cells were fixed at room temperature for 20 min. The cells were washed twice with 200 μl PBS. […] The fixed cells were incubated with filipin III at 37 C in the dark for 2 h.

MDR1 = molecular target: T1, MDR1 (Homo sapiens, UniProt P08183); assay: Doxorubicin accumulation / clearance in H295R cells; type: cell-based; conditions: 25 μM doxorubicin, 20 μM compound, 2 h
T1 construct: measured the accumulation of doxorubicin in H295R cells; endogenous in cells; host or cells: H295R adrenocortical carcinoma cells
Procedure: The medium was removed and immediately replaced with 100 μl of fresh media and intracellular doxorubicin fluorescence was visualized by fluorescence microscopy using a 20× objective.

H295R cells [3] = assay: Cortisol secretion (indirect ELISA); type: cell-based
Procedure: Cortisol secretion was measured by replacing the culture medium with fresh medium containing the indicated compounds. The medium was collected at the indicated times. The cortisol concentration in the medium was measured using indirect ELISA (Arbor Assays).
After 48 h, the medium was removed and replaced with 50 μl of fresh medium. After the indicated incubation time, aliquots of the supernatant ranging from 0.5 to 10 μl were diluted in 50 μl of medium were used to measure the amount of cortisol secreted. Cortisol detection and quantification were performed by indirect ELISA according to the manufacturer's protocol (Arbor Assays #K003).

H295R cells [4] = assay: Cholesterol efflux into serum-free medium with apoA1; type: cell-based; conditions: serum-free medium containing apoA-I
Procedure: Cholesterol efflux was measured by replacing the culture medium with serum-free medium supplemented with 5 μg/ml apoA1 (Sigma) and the indicated compounds. After the indicated time, the serum-free medium was collected, and the cholesterol concentration was measured using the fluorometric enzyme-linked assay (Cayman Chemical).
After 48 h, the medium was removed and replaced with 50 μl serum-free medium supplemented with 5 μg/mL apoA1. After the indicated time, the supernatant containing the effluxed cholesterol, was transferred to a new 96-well plate. A cholesterol detection reagent (Cayman Chemical) consisting of cholesterol assay buffer, cholesterol assay detector (10-acetyl-3,7-dihydroxyphenoxazine [ADHP]), horseradish peroxidase, cholesterol oxidase, and cholesterol esterase was added, and the reactions were incubated for 30 min at 37 C. The fluorescence intensities were measured using ex. […] 590 nm. The cholesterol concentrations were calculated by interpolation between the values produced by cholesterol standards that were analyzed in parallel.

[5] = H295R cells cultured with the compound together with ATR-101, 4 h
[6] = H295R cells, serum-free medium containing apoA-I, together with ATR-101

## CCN(CC)CCO[C@H]1CC[C@@]2(C)C(=CC[C@@H]3[C@@H]2CC[C@]2(C)C(=O)CC[C@@H]32)C1 [U18666A, 3β-(2-diethylaminoethoxy)-5-androsten-17-one]
H295R cells [1]; H295R cells, 4 h
  ATP level in combination with ATR-101 versus separately: caused ATP depletion at concentrations that had no detectable effect on the ATP level separately
H295R cells [2]; H295R cells, 20 μM ATR-101 with 5 μM benzamil (1 h) or 8 μM U18666A (serum-free)
  cholesterol accumulation in combination with ATR-101 versus separately: greater than additive increase in cholesterol accumulation

## NC(=NCc1ccccc1)NC(=O)c1nc(Cl)c(N)nc1N [benzamil]
MDR1
  doxorubicin accumulation: did not increase doxorubicin accumulation

## Cc1c(C)c2c(c(C)c1O)CC[C@@](C)(CCC[C@H](C)CCC[C@H](C)CCCC(C)C)O2 [α-tocopherol]
H295R cells [3]; 40 μM of the compound together with ATR-101, 4 h
  effect on the inhibition of cortisol secretion by ATR-101: neither compound prevented the inhibition of cortisol secretion
H295R cells [4]; together with ATR-101
  effect on the inhibition of cholesterol efflux by ATR-101: did not restore cholesterol efflux
H295R cells [1]; [5]
  effect on ATP depletion by ATR-101: restored normal or nearly normal ATP levels
H295R cells [1]; [6]
  effect on ATP depletion by ATR-101: restored the ATP level

## CC(C)CCC[C@@H](C)[C@H]1CC[C@H]2[C@@H]3CCC4=CC(=NO)CC[C@]4(C)[C@H]3CC[C@]12C [olesoxime]
H295R cells [4]; together with ATR-101, listed as Olesoxime
  effect on the inhibition of cholesterol efflux by ATR-101: no detectable effect on the inhibition of cholesterol efflux
H295R cells [1]; [5]
  effect on ATP depletion by ATR-101: reduced ATP depletion by ATR-101
H295R cells [1]; [6]
  effect on ATP depletion by ATR-101: reduced ATP depletion by ATR-101

## COc1ccc(CCN(C)CCCC(C#N)(c2ccc(OC)c(OC)c2)C(C)C)cc1OC (stereo not shown) [verapamil]
H295R cells [3]; cortisol in medium, 4 h or time course
  cortisol secretion, compound alone: inhibited cortisol secretion
H295R cells [1]; H295R cells, 4 h
  ATP level, compound alone: did not reduce the ATP levels
H295R cells [2]; H295R cells
  cholesterol level (filipin III binding), compound alone: increased the level of cholesterol in intracellular membranes; also recorded: caused cholesterol accumulation

## CC(=O)N1CCN(c2ccc(OCC3COC(Cn4ccnc4)(c4ccc(Cl)cc4Cl)O3)cc2)CC1 (stereo not shown) [ketoconazole]
H295R cells [1]; H295R cells
  ATP depletion at high concentrations of inhibitors of steroidogenesis: enhanced ATP depletion

## COc1ccc(Cl)cc1C(=O)NCCc1ccc(S(=O)(=O)NC(=O)NC2CCCCC2)cc1 [glibenclamide]
H295R cells [4]; 4 h
  cholesterol efflux, compound alone: blocked cholesterol efflux
H295R cells [1]; H295R cells, 4 h
  ATP level in combination with ATR-101 versus separately: did not cause a larger than additive reduction in the ATP levels; also recorded: did not increase the efficiency of ATP depletion
  ATP level, compound alone: did not reduce the ATP level
H295R cells [2]; H295R cells
  cholesterol level (filipin III binding), compound alone: lack of cholesterol accumulation
H295R cells [2]; H295R cells, listed as Glibenclamide
  cholesterol level (filipin III binding), compound alone: did not cause cholesterol accumulation

## CCCCC/C=C\C/C=C\CCCCCCCC(=O)O[C@H]1CC[C@@]2(C)C(=CC[C@H]3[C@@H]4CC[C@H]([C@H](C)CCCC(C)C)[C@@]4(C)CC[C@@H]32)C1 [cholesterol linoleate]
H295R cells [1]; H295R cells cultured with the compound together with ATR-101, 24 h
  effect on ATP depletion by ATR-101: did not prevent
H295R cells [2]; H295R cells cultured with the compound together with ATR-101, 4 h or 24 h
  effect on cholesterol accumulation caused by ATR-101: did not prevent the accumulation of cellular cholesterol

## CC(=O)O[C@H]1CC[C@@]2(C)C(=CC[C@@H]3[C@@H]2CC[C@]2(C)C(c4cccnc4)=CC[C@@H]32)C1 [abiraterone acetate]
H295R cells [1]; H295R cells
  ATP depletion at high concentrations of inhibitors of steroidogenesis: enhanced ATP depletion

## rhodamine-123
H295R cells [1]; H295R cells, 4 h
  ATP level in combination with ATR-101 versus separately: larger than additive reductions in the ATP levels
H295R cells [1]; H295R cells, 4 h, listed as rhodamine 123
  ATP level in combination with ATR-101 versus separately: caused ATP depletion at concentrations that did not deplete ATP individually
H295R cells [1]; H295R cells, ATR-101 and rhodamine-123 in combination, 4 h
  fold lower concentration that reduced the ATP level in combination than required separately: 5 fold
